Source: patent US20250241891A1, “TREATMENT OF ANXIETY” (GH RESEARCH IRELAND LIMITED, priority 2022, published 2025)

Test system: patients with postpartum depression (PPD)
Experiment: Clinical trial of inhaled 5-MeO-DMT in postpartum depression (MADRS, BPRS, BIMF, PES, safety)
Procedure: The single-arm, open-label clinical trial will involve 15 adult female patients with clinically diagnosed postpartum depression (PPD).
The second dose (12 mg) will only be administered if: • a. […] The 6 mg dose was safe and well-tolerated according to the investigator, • c. Any psychoactive effects (PsE) of the prior dose have subsided, and • d. Pre-dose vital parameters and forced expiratory volume in one second (FEV1) are in normal range, or if outside of the normal range, are not clinically significant according to the investigator. • 3. Similarly, a third dose (18 mg) will only be administered if: • a. […] The 12 mg dose was safe and well-tolerated according to the investigator, and • c. Any PsE of the prior dose have subsided, and • d. Pre-dose vital parameters and forced expiratory volume in one second (FEV1) are in normal range, or if outside of the normal range, are not clinically significant according to the investigator.
The patients will be assessed for a peak psychedelic experience (based on a patient-scored visual analogue scale, the PE scale), sedation, and other endpoints after dosing. Follow-up visits are planned for Day 1, and Day 7 after the dosing day.
The following criteria must be met by all patients considered for clinical trial participation: • 1. Is female and in the age range between 18 and 45 years (inclusive) at screening. • 2. Has a body mass index (BMI) in the range of 18.5 and 35 kg/m^2 (inclusive) at screening. • 3. Meets the trial criteria for PPD as assessed by a trial psychiatrist or registered psychologist: • a. Diagnosis of Major Depressive Disorder without psychotic features, confirmed by the Mini-International Neuropsychiatric Interview (MINI), with peri-partum onset that began no earlier than gestation and no later than the first 4 weeks postpartum. • b. Has a Montgomery-Åsberg Depression Rating Scale (MADRS) total score of equal to or greater than 28 at screening and pre-dose on Day 0. • 6. […] Patients must have a negative pregnancy test at screening and on the pre-test day (Day −1). • 5. Is willing to delay start of other antidepressant or anxiety medication until after the end of the trial at Day 7 and agrees to keep any psychotherapy unchanged during the trial.
A potential patient who meets any of the following key exclusion criteria will be excluded from participation in this trial: • 1. Has, based on history, psychiatric assessment, and evaluation of the MINI, a current or prior diagnosis of bipolar disorder, a manic or hypomanic episode, a psychotic disorder, Major Depressive Disorder (MDD) or other mood disorder with psychotic features, obsessive compulsive disorder, post-traumatic stress disorder (PTSD), autism spectrum disorder, borderline personality disorder, schizophrenia, delusional disorder, paranoid personality disorder, schizoaffective disorder, clinically significant intellectual disability, or any other psychiatric comorbidity that renders the patient unsuitable for the trial according to the investigator's judgment. • 2. Has one or more first or second degree relatives with a current or previously diagnosed bipolar disorder, psychotic disorder or other mood disorder (including MDD) with psychotic features. • 3. Is in the judgement of a trial psychiatrist or registered psychologist, at significant risk for suicide based on history, psychiatric assessment, and evaluation of suicidal ideation and suicidal behaviour based on the Columbia-Suicide Severity Rating Scale (C-SSRS). • 4. Has taken anti-depressive medication within 14 days or 5 half-lives (whichever is longer) prior to dosing (exception: within the last 5 weeks in the case of fluoxetine). • 5.

[1] = PPD n=1, IDR 6+12 mg inhaled, 2 hr, baseline 0
[2] = PPD n=1, IDR 6+12 mg inhaled, 2 hr, baseline 3
[3] = PPD n=1, IDR 6+12 mg inhaled, 2 hr, baseline 4
[4] = PPD n=1, IDR 6+12 mg inhaled, 2 hr, baseline 5
[5] = PPD n=1, IDR 6+12 mg inhaled, Day 7, Day 0 score 5
[6] = PPD n=1, IDR 6+12 mg inhaled, Day 7, Day 0 score 6
[7] = PPD n=1, IDR 6+12 mg inhaled, Day 7 vs Day 0
[8] = PPD n=1, IDR 6+12 mg inhaled, day 1, baseline 0
[9] = PPD n=1, IDR 6+12 mg inhaled, day 1, baseline 1
[10] = PPD n=1, IDR 6+12 mg inhaled, day 1, baseline 2
[11] = PPD n=1, IDR 6+12 mg inhaled, day 1, baseline 3
[12] = PPD n=1, IDR 6+12 mg inhaled, day 1, baseline 4
[13] = PPD n=1, IDR 6+12 mg inhaled, day 1, baseline 5

With `COc1ccc2[nH]cc(CCN(C)C)c2c1` [5-MeO-DMT] the “tolerability of the inhalation procedure” value (PPD n=1) was “well tolerated with no inhalation-related adverse events”, the “MADRS remission criteria (MADRS total score equal or less than 10)” value (PPD n=1, IDR 6+12 mg inhaled) was “fulfilled” and the “MADRS response criteria (at least 50% improvement from baseline)” value (PPD n=1, IDR 6+12 mg inhaled) was “fulfilled”. For the same compound, the “reported adverse events (cramping left abdominal pain and headache, Day 0)” value (PPD n=1, IDR 6+12 mg inhaled) was “mild, short-lasting and resolved spontaneously”, the “time to clinical response after administration” value (PPD n=1, IDR 6+12 mg inhaled) was no more than 2 h and the “durability of clinical response” value (PPD n=1, IDR 6+12 mg inhaled given on one day) was “sustained over the 7-day follow-up period”. The “MADRS Concentration Difficulties improvement” value [1] was 0, the “MADRS Concentration Difficulties score” value [1] was 0 and the “MADRS Reduced appetite improvement” value [1] was 0. For the same compound, the “MADRS Reduced appetite score” value [1] was 0, the “MADRS Suicidal Thoughts improvement” value [1] was 0 and the “MADRS Suicidal Thoughts score” value [1] was 0. For the same compound, the “MADRS Inability to Feel improvement” value [2] was 3, the “MADRS Inability to Feel score” value [2] was 0 and the “MADRS Lassitude improvement” value [2] was 3. For the same compound, the “MADRS Lassitude score” value [2] was 0, the “MADRS Pessimistic Thoughts improvement” value [3] was 4 and the “MADRS Pessimistic Thoughts score” value [3] was 0. The “MADRS Reported sadness improvement” value [3] was 4, the “MADRS Reported sadness score” value [3] was 0 and the “MADRS Apparent sadness improvement” value [4] was 5. The “MADRS Apparent sadness score” value [4] was 0, the “MADRS Inner Tension improvement” value [4] was 5 and the “MADRS Inner Tension score” value [4] was 0. For the same compound, the “MADRS Reduced Sleep improvement” value [4] was 0, the “MADRS Reduced Sleep score” value [4] was 5 and the “BIMF item 18 score: Anxiety or worry often interferes with my mothering ability” value (PPD n=1, IDR 6+12 mg inhaled, Day 7, Day 0 score 2) was 5. For the same compound, the “BIMF item 16 score: I worry about how other people judge me (as a mother)” value (PPD n=1, IDR 6+12 mg inhaled, Day 7, Day 0 score 3) was 5, the “BIMF item 13 score: I am taking good care of my physical needs (eating, showering, etc)” value (PPD n=1, IDR 6+12 mg inhaled, Day 7, Day 0 score 4) was 5 and the “BIMF item 10 score: I trust my own feelings (instincts) when it comes to taking care of my baby” value [5] was 6. The “BIMF item 17 score: I am able to take care of my baby and my other responsibilities” value [5] was 5, the “BIMF item 3 score: I am comfortable with the way I've chosen to feed my baby (either bottle or breast, or both)” value [6] was 6 and the “BIMF item 6 score: There are people in my life that I can trust to care for my baby when I need a break” value [6] was 6. For the same compound, the “BIMF item 12 score: I am taking good care of my baby's physical needs (feedings, changing diapers, doctor's appointments)” value [6] was 6, the “BIMF item 14 score: I make good decisions about my baby's health and well being” value [6] was 6 and the “BIMF functional domain Adjustment Δ (Day 7)” value [7] was 1. For the same compound, the “BIMF functional domain Infant Care Δ (Day 7)” value [7] was 0, the “BIMF functional domain Management Δ (Day 7)” value [7] was 5 and the “BIMF functional domain Mother-Child Interaction Δ (Day 7)” value [7] was 2. For the same compound, the “BIMF functional domain Psychological Well-being Δ (Day 7)” value [7] was 9, the “BIMF functional domain Self Care Δ (Day 7)” value [7] was 4 and the “BIMF functional domain Social Support Δ (Day 7)” value [7] was 1. The “BIMF item 1 Δ (Day 7): I am a good mother” value [7] was 0, the “BIMF item 2 Δ (Day 7): I feel rested” value [7] was 2 and the “BIMF item 3 Δ (Day 7): I am comfortable with the way I've chosen to feed my baby (either bottle or breast, or both)” value [7] was 0. For the same compound, the “BIMF item 4 Δ (Day 7): My baby and I understand each other” value [7] was 0, the “BIMF item 5 Δ (Day 7): I am able to relax and enjoy time with my baby” value [7] was 1 and the “BIMF item 6 Δ (Day 7): There are people in my life that I can trust to care for my baby when I need a break” value [7] was 0. For the same compound, the “BIMF item 8 Δ (Day 7): I am getting enough adult interaction” value [7] was 0, the “BIMF item 9 Δ (Day 7): I am getting enough encouragement from other people” value [7] was 1 and the “BIMF item 10 Δ (Day 7): I trust my own feelings (instincts) when it comes to taking care of my baby” value [7] was 1. The “BIMF item 11 Δ (Day 7): I take a little time each week to do something for myself” value [7] was 1, the “BIMF item 12 Δ (Day 7): I am taking good care of my baby's physical needs (feedings, changing diapers, doctor's appointments)” value [7] was 0 and the “BIMF item 13 Δ (Day 7): I am taking good care of my physical needs (eating, showering, etc)” value [7] was 1. The “BIMF item 14 Δ (Day 7): I make good decisions about my baby's health and well being” value [7] was 0, the “BIMF item 15 Δ (Day 7): My baby and I are getting into a routine” value [7] was 1 and the “BIMF item 16 Δ (Day 7): I worry about how other people judge me (as a mother)” value [7] was 2. The “BIMF item 17 Δ (Day 7): I am able to take care of my baby and my other responsibilities” value [7] was 0, the “BIMF item 18 Δ (Day 7): Anxiety or worry often interferes with my mothering ability” value [7] was 3 and the “BIMF item 19 Δ (Day 7): As time goes on, I am getting better at taking care of my baby” value [7] was 1. For the same compound, the “BIMF item 20 Δ (Day 7): I am satisfied with the job I am doing as a new mother” value [7] was −1, the “MADRS Concentration Difficulties improvement” value [8] was 0 and the “MADRS Concentration Difficulties score” value [8] was 0. The “MADRS Reduced appetite improvement” value [8] was 0, the “MADRS Reduced appetite score” value [8] was 0 and the “MADRS Suicidal Thoughts improvement” value [8] was 0. For the same compound, the “MADRS Suicidal Thoughts score” value [8] was 0, the “BPRS Blunted Affect score” value [9] was 1 and the “BPRS Blunted affect improvement” value [9] was 0. For the same compound, the “BPRS Conceptual disorganization improvement” value [9] was 0, the “BPRS Conceptual disorganization score” value [9] was 1 and the “BPRS Disorientation improvement” value [9] was 0. The “BPRS Disorientation score” value [9] was 1, the “BPRS Grandiosity improvement” value [9] was 0 and the “BPRS Grandiosity score” value [9] was 1. The “BPRS Hallucinatory behaviour improvement” value [9] was 0, the “BPRS Hallucinatory behaviour score” value [9] was 1 and the “BPRS Hostility improvement” value [9] was 0. The “BPRS Hostility score” value [9] was 1, the “BPRS Mannerisms and Posturing improvement” value [9] was 0 and the “BPRS Mannerisms and Posturing score” value [9] was 1. For the same compound, the “BPRS Motor retardation improvement” value [9] was 0, the “BPRS Motor retardation score” value [9] was 1 and the “BPRS Suspiciousness improvement” value [9] was 0. The “BPRS Suspiciousness score” value [9] was 1, the “BPRS Uncooperativeness improvement” value [9] was 0 and the “BPRS Uncooperativeness score” value [9] was 1. For the same compound, the “BPRS Unusual Thought Content improvement” value [9] was 0, the “BPRS Unusual Thought Content score” value [9] was 1 and the “BPRS Excitement improvement” value [10] was 1. The “BPRS Excitement score” value [10] was 1, the “MADRS Inability to Feel improvement” value [11] was 3 and the “MADRS Inability to Feel score” value [11] was 0. For the same compound, the “MADRS Lassitude improvement” value [11] was 3, the “MADRS Pessimistic Thoughts improvement” value [12] was 4 and the “MADRS Pessimistic Thoughts score” value [12] was 0. For the same compound, the “MADRS Reported sadness improvement” value [12] was 4, the “MADRS Reported sadness score” value [12] was 0 and the “BPRS Emotional Withdrawal score” value [13] was 1. The “BPRS Emotional withdrawal improvement” value [13] was 4, the “MADRS Apparent sadness improvement” value [13] was 5 and the “MADRS Apparent sadness score” value [13] was 0. For the same compound, the “MADRS Inner Tension improvement” value [13] was 5 and the “MADRS Inner Tension score” value [13] was 0.
